The text below walks through data of ChEMBL document CHEMBL2311474, “Chiral 6,7-bis(hydroxymethyl)-1H,3H-pyrrolo[1,2-c]thiazoles with anti-breast cancer properties” (Eur J Med Chem, 2013).

A short description of experiment [1]: Cytotoxicity against human HFF1 cells after 96 hrs by MTT assay. The class given is cell-based. As to conditions: HFF-1, 96 h.
Experiment [2] concerns MCF7. In words: Cytotoxicity against human MCF7 cells after 48 hrs by MTT assay. The class given is functional, cell-based. The following applies: MCF7, 48 h.
Experiment [3] deals with MCF7. In words: Cytotoxicity against human MCF7 cells after 24 hrs by MTT assay. The class given is functional, cell-based. As to conditions: MCF7, 24 h.
Experiment [4] deals with MCF7. Kind of experiment: Cytotoxicity against human MCF7 cells after 96 hrs by MTT assay. Type of experiment: functional, cell-based. The following applies: MCF7, 96 h. In general terms: Tetrazolium dyes change colour on reduction, which living cells bring about.
The subject of experiment [5] is MCF7. In words: Cytotoxicity against human MCF7 cells after 72 hrs by MTT assay. The class given is functional, cell-based. The following applies: MCF7, 72 h.

pIC50: −log10 of the molar value. A value given as a limit tells only on which side of the number the result lay.

In the case of `Cc1c(CO)cc2n1[C@@H](c1ccccc1)SC2`, in experiment [1], the pIC50 (as a rule, the negative decadic logarithm of the IC50, by convention in mol/L) is 3.81.
`Cc1cc(CO)c2n1[C@@H](c1ccccc1)SC2`: in experiment [1], the pIC50 is 3.99.
Still for that read-out and setting: to `Cc1c(COC(=O)NCc2ccccc2)cc2n1[C@@H](c1ccccc1)SC2` belongs 4.32.
With `OCc1c(CO)c(-c2ccccc2)n2c1CS[C@@H]2c1ccccc1`, the pIC50 with MCF7 [2] was 4.21; with MCF7 [3], 4.03; with MCF7 [4] it was 4.15; in the experiment on MCF7 [5] it was 4.28.
The matching figures for `OCc1c(CO)c(-c2ccc(F)cc2)n2c1CS[C@@H]2c1ccccc1`: 4.33, 4.25, 4.58 and 4.35.
For the compound `Cc1c(CO)c(CO)c2n1[C@H](c1ccccc1)SC2`, the negative-log IC50 (pIC50) in the experiment on MCF7 [2] is 6.27; with MCF7 [3] it was 5.76; in the experiment with MCF7 [4] it was 6.52; with MCF7 [5] it was 6.27.
On to `Cc1c(CO)cc2n1CSC2`, for which the pIC50 in the experiment on MCF7 [2] is 3.81; with MCF7 [3] it was 3.73; with MCF7 [4], 4.08; in the experiment on MCF7 [5] it was 3.72.
As to `Cc1cc(CO)c2n1CSC2`, the pIC50 in the experiment on MCF7 [2] is 4.26; in the experiment on MCF7 [3], 4.12; with MCF7 [4], 4.35; in the experiment with MCF7 [5] it was 4.39.
`Cc1c(CO)c(CO)c2n1CSC2`: the pIC50 with MCF7 [2] is 4.42; in the experiment on MCF7 [3] it was 4.42; with MCF7 [4], 4.67; with MCF7 [5] it was 4.65.
Turning to `COc1cc([C@H]2SCc3c(CO)c(CO)c(C)n32)cc(OC)c1OC`, the negative-log IC50 (pIC50) was 3.90 in the experiment with MCF7 [2], less than 3.70 in the experiment on MCF7 [3], 4.22 with MCF7 [4] and 4.26 in the experiment on MCF7 [5].
In the case of `OCc1cn2c(c1CO)CS[C@@H]2c1ccccc1`, the pIC50 was 4.71 in the experiment on MCF7 [2] and 4.15 in the experiment with MCF7 [3].
For `OCc1cn2c(c1CO)CS[C@@H]2c1cccnc1`, the pIC50 in the experiment on MCF7 [2] is 3.89; with MCF7 [3] it was less than 3.70; in the experiment on MCF7 [4], 4.51; in the experiment on MCF7 [5], 4.21.
